The record followed here is the Kinase Knowledgebase extract (Sharma et al. 2016).

For the assay, the target named is PIK3CG (human) (UniProt P48736). The assay can be described thus: Assessment of PIK3CG Kinase Activity.
Sequence of PIK3CG (human) (P48736 whole entry, looked up): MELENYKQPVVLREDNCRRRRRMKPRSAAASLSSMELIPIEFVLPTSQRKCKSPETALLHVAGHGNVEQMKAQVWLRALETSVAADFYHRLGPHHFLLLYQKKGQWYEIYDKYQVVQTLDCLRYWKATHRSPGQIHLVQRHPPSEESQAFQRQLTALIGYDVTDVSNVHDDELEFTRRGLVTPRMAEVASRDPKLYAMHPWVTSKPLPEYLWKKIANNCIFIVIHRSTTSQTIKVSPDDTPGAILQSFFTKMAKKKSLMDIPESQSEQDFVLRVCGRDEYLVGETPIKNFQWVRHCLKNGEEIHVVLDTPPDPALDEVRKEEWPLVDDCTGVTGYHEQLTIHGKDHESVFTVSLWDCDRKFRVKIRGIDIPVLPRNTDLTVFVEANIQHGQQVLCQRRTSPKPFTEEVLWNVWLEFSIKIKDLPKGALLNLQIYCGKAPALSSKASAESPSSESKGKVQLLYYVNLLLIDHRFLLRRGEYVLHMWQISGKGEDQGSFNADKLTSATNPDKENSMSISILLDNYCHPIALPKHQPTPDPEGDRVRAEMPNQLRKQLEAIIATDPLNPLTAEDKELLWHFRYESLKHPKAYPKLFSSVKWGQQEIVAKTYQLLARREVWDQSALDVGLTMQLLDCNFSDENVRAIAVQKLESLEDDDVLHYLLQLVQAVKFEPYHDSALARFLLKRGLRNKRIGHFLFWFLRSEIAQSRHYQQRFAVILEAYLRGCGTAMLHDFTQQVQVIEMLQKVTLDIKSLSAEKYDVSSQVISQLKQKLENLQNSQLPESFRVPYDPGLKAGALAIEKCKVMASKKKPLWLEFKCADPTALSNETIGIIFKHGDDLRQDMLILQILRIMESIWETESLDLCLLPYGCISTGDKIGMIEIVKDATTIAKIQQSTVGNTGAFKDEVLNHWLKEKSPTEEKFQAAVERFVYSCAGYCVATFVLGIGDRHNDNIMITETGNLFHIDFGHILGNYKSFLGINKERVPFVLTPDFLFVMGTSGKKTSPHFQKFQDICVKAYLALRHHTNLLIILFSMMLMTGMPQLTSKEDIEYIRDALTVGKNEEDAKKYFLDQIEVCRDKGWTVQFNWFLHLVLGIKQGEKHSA
Take `CC(=O)Nc1nc2c(s1)-c1nc(-c3cc(C#CCCNCC4CCCC4)ccc3Cl)ncc1CC2`: the IC50 (in general, the point on the concentration scale where inhibition reaches its midpoint) was less than 600 nM.
The compound `CC(=O)Nc1nc2c(s1)-c1nc(-c3cc(C#CC4CCN(C(=O)NCC5CCCCC5)CC4)ccc3Cl)ncc1CC2` registered an IC50 of less than 600 nM.
`CC(=O)Nc1nc2c(s1)-c1nc(-c3cc(C#CC4(O)CCC(C)(C)CC4)ccc3Cl)ncc1CC2` showed an IC50 of less than 600 nM.
In the case of `CC(=O)Nc1nc2c(s1)-c1nc(-c3cc(C#CCNC(=O)CC4CC4)ccc3Cl)ncc1CC2`, the IC50 was less than 600 nM.
For `CC(=O)Nc1nc2c(s1)-c1nc(-c3cc(C#CCN)ccc3Cl)ncc1CC2` the value was less than 600 nM; for `CCNC(=O)N1CCC(C#Cc2ccc(Cl)c(-c3ncc4c(n3)-c3sc(NC(C)=O)nc3CC4)c2)CC1`, less than 600 nM.
For `CC(=O)Nc1nc2c(s1)-c1nc(-c3cc(C#CC4CCN(C(=O)C5CCCC5)CC4)ccc3Cl)ncc1CC2` the value was less than 600 nM; for `CC(=O)Nc1nc2c(s1)-c1nc(-c3cc(C#CCNC(=O)C4CCCCC4)ccc3Cl)ncc1CC2`, less than 600 nM; for `COC1(C#Cc2ccc(F)c(-c3ncc4c(n3)-c3sc(NC(C)=O)nc3CC4)c2)CCN(C2CCCC2)CC1`, less than 600 nM.
For `CC(=O)Nc1nc2c(s1)-c1nc(-c3cc(C#CCNC(=O)Cn4ccnc4)ccc3Cl)ncc1CC2` the value was less than 600 nM; for `CC(=O)Nc1nc2c(s1)-c1nc(-c3cc(C#CC4CCN(S(=O)(=O)N(C)C)CC4)ccc3Cl)ncc1CC2`, less than 600 nM.
In turn, `CC(=O)Nc1nc2c(s1)-c1nc(-c3cc(C#CCNS(=O)(=O)N4CCOCC4)ccc3Cl)ncc1CC2` showed an IC50 of less than 600 nM.
For `CC(=O)Nc1nc2c(s1)-c1nc(-c3cccc(C#CCN(C)C)c3)ncc1CC2` the value was less than 600 nM; for `CC(=O)Nc1nc2c(s1)-c1nc(-c3cc(C#Cc4ccccc4)ccc3Cl)ncc1CC2`, less than 600 nM; for `CC(=O)Nc1nc2c(s1)-c1nc(-c3cc(C#CC4CCN(S(=O)(=O)C(C)C)CC4)ccc3Cl)ncc1CC2`, less than 600 nM.
For the compound `CC(=O)Nc1nc2c(s1)-c1nc(-c3cc(C#CCNC4CCCC4)ccc3Cl)ncc1CC2`, the IC50 is less than 600 nM.
In the case of `CC(=O)Nc1nc2c(s1)-c1nc(-c3cc(C#CCN(C)C(C)=O)ccc3Cl)ncc1CC2` it was less than 600 nM; in that of `CC(=O)Nc1nc2c(s1)-c1nc(-c3cccc(C#CC4CCN(CC5CCCC5)CC4)c3)ncc1CC2`, less than 600 nM; in that of `CC(=O)Nc1nc2c(s1)-c1nc(-c3cc(C#CCNS(=O)(=O)N(C)C)ccc3Cl)ncc1CC2`, less than 600 nM.
In turn, `CC(=O)Nc1nc2c(s1)-c1nc(-c3cc(C#CCNC(=O)NCC4CCCCC4)ccc3Cl)ncc1CC2` came in with an IC50 of less than 600 nM.
For the compound `CC(=O)Nc1nc2c(s1)-c1nc(-c3cc(C#CCNS(=O)(=O)Cc4ccccc4)ccc3Cl)ncc1CC2`, the half-maximal inhibitory concentration (IC50) is less than 600 nM.
In turn, `CC(=O)Nc1nc2c(s1)-c1nc(-c3cc(C#CCCCN4CCN(C)CC4)ccc3Cl)ncc1CC2` displayed an IC50 of less than 600 nM.
In the case of `CC(=O)Nc1nc2c(s1)-c1nc(-c3cc(C#CC4(NC(C)=O)CCCCC4)ccc3Cl)ncc1CC2` it was less than 600 nM; in that of `CC(=O)Nc1nc2c(s1)-c1nc(-c3cc(C#CC4(O)CCN(C(C)C)CC4)ccc3F)ncc1CC2`, less than 600 nM; in that of `CC(=O)Nc1nc2c(s1)-c1nc(-c3cc(C#CCOC4CCN(C(C)=O)CC4)ccc3Cl)ncc1CC2`, less than 600 nM.
In the case of `CC(=O)Nc1nc2c(s1)-c1nc(-c3cc(C#C[C@H]4CCCN4)ccc3Cl)ncc1CC2` it was less than 600 nM; in that of `CC(=O)Nc1nc2c(s1)-c1nc(-c3cc(C#CCNC(=O)N4CCCC4)ccc3Cl)ncc1CC2`, less than 600 nM; in that of `CC(=O)Nc1nc2c(s1)-c1nc(-c3cc(C#CCN4CCN(C(C)=O)CC4)ccc3Cl)ncc1CC2`, less than 600 nM.
The compound `CC(=O)Nc1nc2c(s1)-c1nc(-c3cccc(C#CC4CCN(C(C)C)CC4)c3)ncc1CC2` came in with an IC50 of less than 600 nM.
For `CC(=O)Nc1nc2c(s1)-c1nc(-c3cc(C#CCNC(=O)NC(C)(C)C)ccc3Cl)ncc1CC2` the value was less than 600 nM; for `CC(=O)Nc1nc2c(s1)-c1nc(-c3cc(C#CCCCNC4CCCC4)ccc3Cl)ncc1CC2`, less than 600 nM; for `CC(=O)Nc1nc2c(s1)-c1nc(-c3cc(C#CC4CCN(C(=O)N5CCOCC5)CC4)ccc3Cl)ncc1CC2`, less than 600 nM.
In the case of `CC(=O)Nc1nc2c(s1)-c1nc(-c3cc(C#CCN4CC[S+]([O-])CC4)ccc3Cl)ncc1CC2` it was less than 600 nM; in that of `CC(=O)Nc1nc2c(s1)-c1nc(-c3cc(C#C[C@@H]4CCCN4)ccc3Cl)ncc1CC2`, less than 600 nM.
For `CC(=O)Nc1nc2c(s1)-c1nc(-c3cccc(C#CC4(O)CCN(C(C)C)CC4)c3)ncc1CC2` the value was less than 600 nM; for `CC(=O)Nc1nc2c(s1)-c1nc(-c3cccc(C#CCNS(=O)(=O)C4CC4)c3)ncc1CC2`, less than 600 nM; for `CC(=O)Nc1nc2c(s1)-c1nc(-c3cc(C#CCN(C)C(C)C)ccc3Cl)ncc1CC2`, less than 600 nM.
Take `CC(=O)Nc1nc2c(s1)-c1nc(-c3cc(C#CCCCNC(C)C)ccc3Cl)ncc1CC2`: the IC50 is less than 600 nM.
Regarding `CC(=O)Nc1nc2c(s1)-c1nc(-c3cc(C#CCN4CCN(C5CCCC5)CC4)ccc3Cl)ncc1CC2`, the IC50 is less than 600 nM.
In the case of `CC(=O)Nc1nc2c(s1)-c1nc(-c3cc(C#Cc4ccccn4)ccc3Cl)ncc1CC2` it was less than 600 nM.
In turn, `COC1(C#Cc2ccc(Cl)c(-c3ncc4c(n3)-c3sc(NC(C)=O)nc3CC4)c2)CCN(C)CC1` displayed an IC50 of less than 600 nM.
In the case of `CC(=O)Nc1nc2c(s1)-c1nc(-c3cc(Cl)cc(C#CCN(C)S(C)(=O)=O)c3)ncc1CC2`, the concentration for half-maximal inhibition (IC50) is less than 600 nM.
For `CC(=O)Nc1nc2c(s1)-c1nc(-c3cc(C#CCNCc4ccccn4)ccc3Cl)ncc1CC2` the value was less than 600 nM; for `CC(=O)Nc1nc2c(s1)-c1nc(-c3cc(Cl)cc(C#CC4(N)CCCCC4)c3)ncc1CC2`, less than 600 nM.
For `CNC(=O)Nc1nc2c(s1)-c1nc(-c3cc(C#CC4(OC)CCN(C)CC4)ccc3Cl)ncc1CC2` the value was less than 600 nM.
In the case of `CC(=O)Nc1nc2c(s1)-c1nc(-c3cc(C#CCNC4CCN(C)CC4)ccc3Cl)ncc1CC2` it was less than 600 nM; in that of `CC(=O)Nc1nc2c(s1)-c1nc(-c3cc(C#CC4(NC(C)C)CCCCC4)ccc3Cl)ncc1CC2`, less than 600 nM; in that of `CC(=O)Nc1nc2c(s1)-c1nc(-c3cc(Cl)cc(C#CCNS(C)(=O)=O)c3)ncc1CC2`, less than 600 nM.
Consider `CC(=O)Nc1nc2c(s1)-c1nc(-c3cc(C#CCCN(C)C(C)=O)ccc3Cl)ncc1CC2`, for which the IC50 was less than 600 nM.
For `CC(=O)Nc1nc2c(s1)-c1nc(-c3cc(C#CC4CCN(C(=O)N(C)C)CC4)ccc3Cl)ncc1CC2` the value was less than 600 nM; for `CC(=O)Nc1nc2c(s1)-c1nc(-c3cccc(C#CCNS(=O)(=O)N(C)C)c3)ncc1CC2`, less than 600 nM.
Compound `CC(=O)Nc1nc2c(s1)-c1nc(-c3cc(C#CCNC(=O)C4CC4)ccc3Cl)ncc1CC2` yielded an IC50 of less than 600 nM.
`CC(=O)Nc1nc2c(s1)-c1nc(-c3cc(C#CCO[C@@H]4CN5CCC4CC5)ccc3Cl)ncc1CC2` returned an IC50 of less than 600 nM.
In turn, `CC(=O)Nc1nc2c(s1)-c1nc(-c3cc(C#CCC4CCCC4)ccc3Cl)ncc1CC2` registered an IC50 of less than 600 nM.
For `COC1(C#Cc2ccc(Cl)c(-c3ncc4c(n3)-c3sc(NC(C)=O)nc3CC4)c2)CCN(C2CCCC2)CC1` the value was less than 600 nM; for `COC1CCN(S(=O)(=O)NCC#Cc2ccc(Cl)c(-c3ncc4c(n3)-c3sc(NC(C)=O)nc3CC4)c2)CC1`, less than 600 nM.
For `CC(=O)Nc1nc2c(s1)-c1nc(-c3cc(C#CCN(C)S(C)(=O)=O)ccc3Cl)ncc1CC2` the value was less than 600 nM; for `CC(=O)Nc1nc2c(s1)-c1nc(-c3cc(C#CCN4CCC(C(N)=O)CC4)ccc3Cl)ncc1CC2`, less than 600 nM.
In the case of `CC(=O)Nc1nc2c(s1)-c1nc(-c3cc(C#CCNC(C)C)ccc3Cl)ncc1CC2` it was less than 600 nM; in that of `CC(=O)Nc1nc2c(s1)-c1nc(-c3cc(C#CCN(C)C)ccc3Cl)ncc1CC2`, less than 600 nM.
Turning to `CC(=O)Nc1nc2c(s1)-c1nc(-c3cc(C#CCNCC(C)(C)C)ccc3Cl)ncc1CC2`, the IC50 is less than 600 nM.
In the case of `CC(=O)Nc1nc2c(s1)-c1nc(-c3cc(C#CCNC(=O)C4CCCC4)ccc3Cl)ncc1CC2` it was less than 600 nM; in that of `CC(=O)Nc1nc2c(s1)-c1nc(-c3cc(C#CC4CCN(C(=O)NC(C)(C)C)CC4)ccc3Cl)ncc1CC2`, less than 600 nM; in that of `CNC(=O)NC1(C#Cc2ccc(Cl)c(-c3ncc4c(n3)-c3sc(NC(C)=O)nc3CC4)c2)CCCCC1`, less than 600 nM.
For `CC(=O)Nc1nc2c(s1)-c1nc(-c3cccc(C#CC4(O)CCN(C)CC4)c3)ncc1CC2` the value was less than 600 nM; for `COC1(C#Cc2ccc(Cl)c(-c3ncc4c(n3)-c3sc(NC(C)=O)nc3CC4)c2)CCCCC1`, less than 600 nM.
In the case of `CC(=O)Nc1nc2c(s1)-c1nc(-c3cc(C#CCCN4CCC(N(C)C)CC4)ccc3Cl)ncc1CC2` it was less than 600 nM; in that of `CCNC1(C#Cc2ccc(Cl)c(-c3ncc4c(n3)-c3sc(NC(C)=O)nc3CC4)c2)CCCCC1`, less than 600 nM; in that of `CC(=O)Nc1nc2c(s1)-c1nc(-c3cc(C#CC4(O)CCN(C(C)C)CC4)ccc3Cl)ncc1CC2`, less than 600 nM.
`CC(=O)Nc1nc2c(s1)-c1nc(-c3cccc(C#CCNC(=O)C4CCN(C)CC4)c3)ncc1CC2` had an IC50 of less than 600 nM.
In the case of `CC(=O)Nc1nc2c(s1)-c1nc(-c3cc(C#CCNC(=O)CCC4CCCC4)ccc3Cl)ncc1CC2` it was less than 600 nM.
In the case of `CC(=O)Nc1nc2c(s1)-c1nc(-c3cc(C#CCNS(=O)(=O)C4CCCCC4)ccc3Cl)ncc1CC2` it was less than 600 nM; in that of `CCS(=O)(=O)NCC#Cc1ccc(Cl)c(-c2ncc3c(n2)-c2sc(NC(C)=O)nc2CC3)c1`, less than 600 nM.
The compound `CC(=O)Nc1nc2c(s1)-c1nc(-c3cc(C#CC4CCN(C(C)C)CC4)ccc3Cl)ncc1CC2` yielded a half-inhibitory concentration (IC50) of less than 600 nM.
In the case of `CNC(=O)NCC#Cc1ccc(Cl)c(-c2ncc3c(n2)-c2sc(NC(C)=O)nc2CC3)c1` it was less than 600 nM; in that of `CC(=O)Nc1nc2c(s1)-c1nc(-c3cc(C#CCN4CCN(C(C)C)CC4)ccc3Cl)ncc1CC2`, less than 600 nM.
For `CC(=O)Nc1nc2c(s1)-c1nc(-c3cc(C#CCNC(=O)NC(C)C)ccc3Cl)ncc1CC2` the value was less than 600 nM.
For `CC(=O)Nc1nc2c(s1)-c1nc(-c3cc(C#CCNCc4ncccc4C)ccc3Cl)ncc1CC2` the value was less than 600 nM.
